Measurements published in patent US20080025946A1, “INTERLEUKIN 21 AND TYROSINE KINASE INHIBITOR COMBINATION THERAPY” (priority 2006, published 2008).
Read-outs that look alike come from different tables or passages of the source.

Legend:
[1] = system: RenCa.2 mouse renal cell carcinoma model; conditions: RenCa.2 model
RenCa.2 tumor = assay: Concurrent mIL-21 and sub-maximal sorafenib: RenCa.2 tumor growth in mice; type: in vivo, mouse
Procedure: Tumor volume was monitored 3×/week for 3 weeks.
Ten-week old female BALB/c mice (Charles River Laboratories) were injected s.c. on the right flank with 0.1×10^6 RenCa.2 cells on Day 0. […] Tumor growth was monitored 3×/week for 3 weeks using caliper measurements. Tumor volume is calculated using the formula ½*(B)2*L (mm3).

RenCa.2 tumors = assay: Concurrent mIL-21 and high dose sorafenib: survival of mice bearing RenCa.2 tumors; type: in vivo, mouse; conditions: BALB/c mice, s.c. RenCa; from day 5: 50 μg mIL-21 i.p. 5/9/5 and/or 60 mg/kg sorafenib oral gavage 10 days; n=10/group
Procedure: Survival of mice receiving the treatments were monitored over 35 days.
Survival of mice were monitored over 35 days.
Ten-week old female BALB/c mice (Charles River Laboratories) were injected s.c. on the right flank with 0.1×10^6 RenCa cells on Day 0. […] Tumor growth was monitored 3×/week for 3 weeks using caliper measurements. Survival of mice were monitored over 35 days. Tumor bearing mice were terminated as per IACUC policies with regard to maximal tumor size (1200 mm^3) or weight loss of >=20% of initial body weight.

[2] = system: murine model of renal adenocarcinoma (RenCa); conditions: cited from earlier work

Compound	doses at which maximally effective in mediating tumor clearance ([1]; sunitinib orally administered)	inhibition of tumor growth (in words) (RenCa.2 tumor; 25 μg mIL-21 and/or 2 mg/kg sorafenib, RenCa.2 model)	Tumor volume mm3 + SD(Day21) (RenCa.2 tumor; BALB/c mice, s.c. RenCa.2, from day 3: 25 μg mIL-21 i.p. 5 days and/or 2 mg/kg sorafenib oral gavage 10 days, Day 21, n=10/group)	% mice surviving at Day 35 (RenCa.2 tumors)	inhibition of tumor growth ([2]; 7.5 mg/kg daily)	inhibition of tumor growth ([2]; 60 mg/kg daily)	doses at which partially effective in mediating tumor clearance [1]
CCN(CC)CCNC(=O)c1c(C)[nH]c(/C=C2\C(=O)Nc3ccc(F)cc32)c1C [sunitinib]	above 40 mg/kg						
CNC(=O)c1cc(Oc2ccc(NC(=O)Nc3ccc(Cl)c(C(F)(F)F)c3)cc2)ccn1 [sorafenib]		partially effective	790.3 + 398.8 mm3	50%	30%	84%	below 10 mg/kg
